Data taken from US12194032B2, “Method of treating focal segmental glomerulosclerosis” (ChemoCentryx, Inc., priority 2016, dated 2025).

Columns and labels:
Type in all cases: in vivo
[1] = test system: Adriamycin nephropathy female Balb/c mice; assay: Adriamycin Nephropathy Model (Example 2); details: Adriamycin 7.5 mg/kg i.v. day 0; compound 1 90 mg/kg subcutaneously once daily; candesartan orally once daily; week 1, 2 and 3; vs vehicles
Procedure: (§1) The remnant kidney and the adryamicin drug-induced models are commonly used rodent models for FSGS (de Mik S M. Et al. Pathophysiology and treatment of focal segmental glomerulosclerosis: the role of animal models. BMC Nephrol. 2013 Apr. 1; 14:74). The 5/6 remnant kidney model is representative of secondary FSGS whereas the Adriamycin nephropathy model is representative of primary FSGS.
The experiment was performed in female Balb/c mice (Jackson Laboratories). The mice were kept on standard chow and had free access to water. 7.5 mg/kg Adriamycin (Selleck Chemicals) or saline (control) was injected in a tail vein in isoflurane-anesthetized animals at day 0. Compound 1 and its vehicle (1% HPMC) were dosed subcutaneously once daily at 90 mg/kg formulated in 1% HPMC. Candesartan and its vehicle (H2O) were dosed orally once daily. Twelve animals were used for each group.
[…] Urinary albumin was measured by ELISA (Bethyl Labs, Montgomery, TX), and the urinary albumin excretion rate (UAER) was calculated as micrograms per 24 hours. Urinary creatinine was measured by mass spectrometry. The albumin to creatinine ratio (ACR) was calculated as micrograms of albumin per milligram of creatinine.

[2] = test system: 5/6 remnant kidney 129X1/SvJ mice; assay: 5/6 Remnant Kidney Model (Example 1); details: 5/6 nephrectomized mice
Description: as §1
(§2) The 5/6 remnant kidney 129X1/SvJ mice was obtained from Jackson Laboratories. The mice were kept on standard chow and had free access to water. The mice surgery was performed in two stages. Under isoflurane anesthesia, two-thirds of the left kidney mass was dissected. After 7 to 10 days, a right unilateral nephrectomy was performed. Six weeks after the 5/6 nephrectomy, the mice were randomized for the study. Compound 3 and its vehicle were dosed subcutaneously once daily at 100 mg/kg formulated in 1% HPMC. 6 animals were used for each group.
Urine samples were collected at weeks one and two by individually housing the mice in metabolic cages for 18 hours. Urinary albumin was measured by ELISA (Bethyl Labs, Montgomery, TX), and the urinary albumin excretion rate (UAER) was calculated as micrograms per 24 hours. Urinary creatinine was measured by mass spectrometry. The albumin to creatinine ratio (ACR) was calculated as micrograms of albumin per milligram of creatinine. At the end of the experiments (after 2 weeks of treatment), the kidneys were collected, fixed in formalin, embedded in paraffin, and cut into 3-μm-thick sections. Sections were stained for podocytes by immunohistochemistry with Wilms tumor protein 1 antibody (Abcam, Cambridge, MA). Glomerular cross-sectional area and podocyte number were determined in 20-30 glomeruli per mouse. Glomerulus volume and podocyte density were calculated from the immunohistochemistry data using the Weibel method. Mesangial expansion was measured by silver methenamine stain on 2-μm-thick paraffin sections by conventional methods.

[3] = test system: 5/6 remnant kidney 129X1/SvJ mice; assay: 5/6 Remnant Kidney Model with Combination Treatment (Example 3); details: 5/6 nephrectomized mice, compound 3 100 mg/kg subcutaneously once daily, candesartan 5 mg/kg orally once daily
Description: as §1
as §2, with “After seven” for “After 7”, “to ten” for “to 10”, “performed. Three to six” for “performed. Six”, “the study (n=12 per group).” for “the study.”, “HPMC. […]” for “HPMC. 6 animals were used for each group.”
Urine samples were collected at week one, two and three by individually housing the mice in metabolic cages for 18 hours. Urinary albumin was measured by ELISA (Bethyl Labs, Montgomery, TX), and the urinary albumin excretion rate (UAER) was calculated as micrograms per 24 hours. Urinary creatinine was measured by mass spectrometry. The albumin to creatinine ratio (ACR) was calculated as micrograms of albumin per milligram of creatinine.

[4] = 100 mg/kg subcutaneously once daily, kidneys after 2 weeks of treatment

Row | SMILES | UACR levels (FIG. 8) [1] | proteinuria (UACR values, FIG. 1) ([2]; 100 mg/kg subcutaneously once daily in 1% HPMC, week 1 and 2, vs vehicle) | number of renal interstitial macrophages (macrophage content as percentage of total area, FIG. 2) [2, 4] | percentage of glomeruli with mesangiolysis (FIG. 6) [2, 4] | podocytes numbers per glomerular cross section (FIG. 4) [2, 4] | UACR values (FIG. 11) ([3]; week 1 and week 2) | UAER values (FIG. 10) ([3]; weeks 1, 2 and 3)
1 | Cc1cnc(C(=O)c2ccnc3[nH]ccc23)c(NS(=O)(=O)c2ccc(Cl)c(C(F)(F)F)c2)c1 [compound 1] | reduction in UACR levels | – | – | – | – | – | –
2 | O=C(c1ncc(Cl)cc1NS(=O)(=O)c1ccc(Cl)c(C(F)(F)F)c1)c1ccnc2[nH]ccc12 [compound 3] | – | reduces the profound proteinuria | reduces the number of renal interstitial macrophages | beneficial effect | increased podocytes numbers | reduction in UACR values | reduction in UAER values
